Tests used:
[1] = target: T1, full length PLK1 (Homo sapiens, UniProt P53350); assay: PLK1 kinase inhibition assay (CycLex ELISA); type: biochemical; settings: 7.5 μM ATP, read-out: PLK1 Kinase Inhibitory Act. IC50
T1 construct: This ELISA assay measures the catalytic activity of full length PLK1 for a defined substrate
Excerpt: PLK1 Kinase Inhibition Assay
The CycLex® Polo-like Kinase 1 Assay/Inhibitor Screening Kit was used to measure catalytic inhibition (MBL Life Science, Nagano, Japan). This ELISA assay measures the catalytic activity of full length PLK1 for a defined substrate, which is detected by an anti-phospho-threonine antibody (PPT-07) and peroxidase coupled secondary antibody. […] Peroxidase catalyzes the conversion of the colorless solution to yellow, which was quantified using a DTX 880 plate reader. Absorbance measurements (450 nm) were plotted to calculate activity in each sample, and % inhibition was calculated in the wells relative to activity in the absence of inhibitor.

[2] = test system: PC3 cells; assay: Cell cycle analysis after release (DAPI/BrdU FACS), FIG. 3; type: cell-based; settings: FIG. 3 4th panel, concentration not given
Experimental: PLK specificity can be useful in therapeutic applications, as well as in research-oriented application.
(§1) Analysis of Cell Cycle Progression by FACS
(§2) Serum-Starved Synchronization
(§3) Cells were synchronized in G1 by serum starvation. Briefly, exponentially growing cells were plated overnight. Media (DMEM, 10% FBS, 1% Pen. Strep.) was then removed and replaced with media containing no FBS. Cells were starved for 72 hours then treated for 24 hours with inhibitor. Following treatment, cells were harvested and processed for endpoint experimental analysis.
(§4) Ethanol fixative was removed by centrifugation and the cells were washed with 1 mL ice-cold PBS/1% BSA. Cells were denatured by resuspending in 0.2 mg/mL pepsin in 2N HCl and incubated in 37° C. water bath for 15 minutes. Hydrolysis was then terminated by adding 1 M Invitrogen™ Novex® Tris-Glycine. Cells were then washed with PBS/1% BSA then the primary anti-BrdU antibody (1:100 dilution in TBFP; 0.5% Tween-20, 1% BSA, 1% FBS, PBS) was added and cells were incubated for 25 minutes in the dark, at room temperature. […] Cells were washed once more with PBS/1% BSA and re-suspended in DAPI for 30 minutes before being analyzed by flow cytometry.

[3] = test system: PC3 cells; assay: Cell cycle analysis and BrdU pulse labeling in PC3 cells, FIG. 9-11; type: cell-based
Experimental: as §1, §2, §3, §4
The PLK1 PBD-inhibitors were analyzed further by cell cycle analysis in PC3 cells (FIG. 9). […] To quantify the percentage of cells actively proliferating (synthesizing their DNA) or arrested Bromodeoxyuridine (BrdU) pulse labeling was carried out and analyzed by flow cytometry.

[4] = test system: HeLa cervical cancer cells; assay: Cell viability assay (MTT), HeLa; type: cell-based; settings: MTT, 72 hours; read-out: HeLa
Experimental: HeLa cervical cancer cells were obtained from ATCC (Manassas, Va.). […] Cells were maintained in DMEM (Invitrogen™, Carlsebad, Calif.) supplemented with 10% FBS or Corning© Nu-Serum™ (BD™ Biosciences, Franklin Lakes, N.J.) and 1% penicillin/streptomycin (Invitrogen™) in a humidified incubator and 5% CO2 at 37° C.
(§5) Exponentially growing cells were plated in 96-well dishes. Dose response curves were used to treat cells for 72 hours with inhibitors. Following the three-day treatment, cell viability was measured using the MTT (3-(4,5-dimethylthiazol-2-yl)-2,5-diphenyltetrazolium bromide) colorimetric assay. Cells were incubated for 3 hours with MTT allowing viable cells to metabolize the tetrazolium dye to a purple colored solution.

[5] = test system: HCT-116 (p53+/+) colon cancer cells; assay: Cell viability assay (MTT), HCT116 p53+/+; type: cell-based; settings: 72 hours
Experimental: as §5

[6] = Cell cycle analysis and caspase apoptosis assay; type: cell-based
Excerpt: Disclosed small molecule inhibitors can also encourage apoptosis.

[7] = test system: HCT-116 (p53−/−) colon cancer cells; assay: Cell viability assay (MTT), HCT116 p53-/-; type: cell-based; settings: 72 hours
Experimental: HCT-116 (p53+/+ and −/−) colon cancer cells were maintained DMEM (Invitrogen™, Carlsebad, Calif.) supplemented with 10% FBS or Nu-serum (BD™ Biosciences, Franklin Lakes, N.J.) and 1% penicillin/streptomycin (Invitrogen™) in a humidified incubator and 5% C02 at 37° C.
as §5, with “solution. Absorbance measurements (595 nm) were quantified using a DTX 880 plate reader and IC50 values were generated for FLIPs.” for “solution.”

[8] = target: T2, PLK1 PBD (367-603) (Homo sapiens, UniProt P53350); assay: Fluorescence polarization assay, PLK1 PBD; type: binding
T2 construct: PLK1 PBD (367-603); purchased BPS Biosciences Inc. (San Diego, Calif.)
Experimental: Fluorescence Polarization Assay
Materials were dissolved in DMSO (10 mM) and diluted from 10 nM to 600 μM (maximum of 6% DMSO tolerance in the assay). […] Incubation was carried out at room temperature for 45 minutes. Fluorescence was measured using a DTX 880 plate reader and Multimode Analysis software (Beckman Coulter, Brea, Calif.). […] Each data point was performed in triplicate for every experiment, and experiments were performed at least three times. An IC50 value for each compound was calculated from linear regression analysis of the plots.

[9] = test system: PTEN deficient prostate cancer (PC3) cells; assay: Cell viability assay (MTT), PC3; type: cell-based; settings: MTT, 72 hours; read-out: PCC-3
Experimental: PC3 prostate cancer cells were maintained in DMEM (Invitrogen™, Carlsebad, Calif.) supplemented with 10% FBS or Corning® Nu-Serum™ (BD™ Biosciences, Franklin Lakes, N.J.) and 1% penicillin/streptomycin (Invitrogen™) in a humidified incubator and 5% C02 at 37° C.
as §5

[10] = test system: KRAS mutant lung cancer (A-549) cells; assay: Cell viability assay (MTT), A-549; type: cell-based; settings: 72 hours
Experimental: A-549 lung cancer cells were maintained in Hams F-12 1× with glutamine (Corning® Cellgro, Manassas, Va.), and supplemented with 10% FBS or Corning® Nu-Serum™ (BD™ Biosciences, Franklin Lakes, N.J.) and 1% penicillin/streptomycin (Invitrogen™) in a humidified incubator and 5% C02 at 37° C.
as §5, with “solution. Absorbance measurements (595 nm) were quantified using a DTX 880 plate reader and IC50 values were generated for FLIPs.” for “solution.”

T2 sequence (P53350 367-603): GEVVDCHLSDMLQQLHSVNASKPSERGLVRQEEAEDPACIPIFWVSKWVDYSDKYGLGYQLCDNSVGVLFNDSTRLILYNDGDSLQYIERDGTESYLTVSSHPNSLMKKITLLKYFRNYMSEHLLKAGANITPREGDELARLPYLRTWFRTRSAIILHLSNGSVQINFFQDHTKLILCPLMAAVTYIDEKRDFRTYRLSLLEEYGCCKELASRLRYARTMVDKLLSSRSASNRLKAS
T1 sequence (P53350 whole entry): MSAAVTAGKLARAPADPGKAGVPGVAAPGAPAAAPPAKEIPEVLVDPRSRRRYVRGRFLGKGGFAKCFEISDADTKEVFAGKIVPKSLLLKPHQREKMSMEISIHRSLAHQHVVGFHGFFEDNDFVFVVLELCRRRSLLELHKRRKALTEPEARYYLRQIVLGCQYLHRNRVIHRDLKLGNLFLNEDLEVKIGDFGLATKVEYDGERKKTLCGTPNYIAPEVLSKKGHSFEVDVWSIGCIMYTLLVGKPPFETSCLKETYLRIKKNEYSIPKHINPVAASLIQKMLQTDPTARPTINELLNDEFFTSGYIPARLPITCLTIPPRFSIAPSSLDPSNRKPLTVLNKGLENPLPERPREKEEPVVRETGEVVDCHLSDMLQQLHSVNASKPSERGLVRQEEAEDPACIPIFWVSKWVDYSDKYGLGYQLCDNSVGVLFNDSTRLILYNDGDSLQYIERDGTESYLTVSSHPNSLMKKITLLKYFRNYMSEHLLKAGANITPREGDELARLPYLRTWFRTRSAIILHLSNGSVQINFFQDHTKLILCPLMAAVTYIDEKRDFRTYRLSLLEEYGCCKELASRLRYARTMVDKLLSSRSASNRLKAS

IC50 [1]: 24.3 µM | IC50 [4]: 15.5 ± 1.7 µM | IC50 [5]: 17.4 ± 5.6 µM | IC50 [7]: 10 ± 1 µM | PLK1 versus PLK3 specificity (in words) ([8]; PBD binding): high selectivity for PLK1 | IC50 ([8]; PLK1 PBD binding, fluorescence polarization, read-out: PLK1 IC50): 2.16 ± 0.01 µM | IC50 [9]: 16.3 ± 2.1 µM | IC50 [10]: 5.1 ± 1.5 µM
Structure (SMILES): CCCCCCCCc1ccc(C(=O)Nc2ccc(C)cc2C(=O)O)cc1 [SCCP ID No. 5915]
G2/M by DAPI [2]: 42% | cells BrdU+ [2]: 13% | cells replicating their DNA (BrdU labeling) ([3]; 5 μM): 28.3% | BrdU+ ([3]; 15 μM): 3.6% | cell cycle phenotype (in words) ([3]; 15 μM): G1 delay or arrest | levels of apoptosis (in words) [6]: high levels of apoptosis

Reference: US11597737B2, “Small molecule inhibitors selective for polo-like kinase proteins” (UNIVERSITY OF SOUTH CAROLINA, priority 2016, dated 2023)
